Measurements reported in patent US6746688B1, “Apparatus for the transdermal treatment of Parkinson's disease” (Neuroderm Ltd., priority 1996, dated 2004).
Where two headings read alike, the source gives them in different places.

What was measured:
[1] = Solubility of LD derivatives in potential solvents; type: physicochemical
Description: The solubility of LD, LD methyl ester (LDME) and LD ethyl ester (LDEE) was examined in several potential solvents, with increasing amounts of the three LD derivatives being added to a constant volume of 5% propionic acid in water or 10% propionic acid in propylene glycol.

Parkinson's disease = settings: Refs. 19-21; cited from earlier work
[2] = Stability of LDEE in formulations by thin layer chromatography; type: physicochemical
Description: The stability of LDEE was tested in several combinations of potential components of the formulation. For this purpose, 500 mg LDEE was dissolved in 1 ml 5% propionic acid just before the beginning of the stability experiment. In parallel, 500 mg LDEE was dissolved in 1 ml propylene glycol containing 10% propionic acid. These preparations of LDEE were used as stock solutions for several tested formulations as follows: […]
1) LDEE in aqueous solution of 5% propionic as prepared above.
2) Same solution as in No. 1 above+5% sodium deoxycholate.
3) Same solution as in No. 1 above+5% sodium dodecylsulfate.
4) Same solution as in No. 1 above+5% Tween-20.
5) Same solution as in No. 1 above+5% tritonX100.
6) Same solution as in No. 1 above+glycerol at a ratio of 1:1.
7) Same solution as in No. 1 above+propylene glycol at a ratio of 2:1.
8) LDEE in propylene glycol containing 10% propionic acid.
9) Same solution as in No. 8 above+5% sodium deoxycholate.
10) Same solution as in No. 8 above+5% sodium dodecylsulfate.
The above LDEE formulations were run on a thin layer chromatography (on silica gel—Merk Art. 5735; and on cellulose—Merk Art. 5574) for a qualitative detection of LDEE and its degradative products. The various LDEE formulations were kept at room temperature for several days and separation of the LDEE and its degradative products on the thin layer chromatography were repeated at various times after dissolving the LDEE. The running solvents for the thin layer chromatography were:
a) Propanol: Butanoic Acid: Water (20:4:10).
b) Dichloromethane: Acetone: Ethyl-Acetate: Methanol (35:15:1:0.25).

[3] = Pilot experiment of transdermal delivery, LDEE in serum by HPLC with electrochemical detector; type: in vivo; settings: two human volunteers, 24 h dermal exposure, propylene glycol with 10% propionic acid and 5% sodium deoxycholate or sodium dodecylsulfate
Description: In a pilot experiment of transdermal delivery, two human volunteers were exposed for 24 h to LDEE dissolved in propylene glycol containing 10% propionic acid and 5% of either sodium deoxycholate (one volunteer) or sodium dodecylsulfate (one volunteer). Blood samples were taken at various times after the application of the LDEE on the skin and LDEE in the serum was separated on high performance liquid chromatography and determined with an electrochemical detector. The protocol and the details of this pilot study are described in the enclosed appendix. […] These levels are considered appropriate for obtaining therapeutic effect in Parkinson's patients.

Compound | solubility [1] | LD plasma levels at which therapeutic effects were noticed (Parkinson's disease) [ng/mL] | degradative products on thin layer chromatography ([2]; 24 h after dissolving, room temperature, formulations that contained tritonX100) | degradative products on thin layer chromatography ([2]; 24 h after dissolving, room temperature, other formulations (without tritonX100)) | degradative products on thin layer chromatography ([2]; 48 h after dissolving, room temperature, all the aqueous solutions) | order of degradation among aqueous formulations ([2]; 48 h after dissolving, room temperature, aqueous solutions) | degradative products on thin layer chromatography ([2]; immediately after the preparation, all formulations) | time LDEE was stable ([2]; propylene glycol-based formulations, room temperature) | blood levels of LDEE after dermal application [3] | solubility ([1]; 5% propionic acid in water) | solubility ([1]; 10% propionic acid in propylene glycol)
N[C@@H](Cc1ccc(O)c(O)c1)C(=O)O [LD, Levodopa] | negligible amounts | 300 to 800 |  |  |  |  |  |  |  |  | 
CCOC(=O)[C@@H](N)Cc1ccc(O)c(O)c1 [LDEE, levodopa-ethyl-ester] | at least 660 mg in 1 ml |  | Degradative products appeared | did not show significant degradation | degradative products appeared | formulation containing tritonX100>formulation containing Tween-20 >formulation containing sodium dodecylsulfate=formulation containing sodium deoxycholate | No degradative products were seen | more than 48 h | about 200 ng/ml |  | 
COC(=O)[C@@H](N)Cc1ccc(O)c(O)c1 [LDME, LD methyl ester] |  |  |  |  |  |  |  |  |  | negligible amounts | negligible amounts
